Assay results from patent publication US20210386841A1, “COMPOSITIONS FOR TRANSFECTING mRNA INTO A CELL AND THEIR APPLICATIONS” (POLYPLUS TRANSFECTION, priority 2018, published 2021).

What was measured:
Type in all cases: cell-based
[1] = tested on: THP-1 human peripheral blood monocyte cells; assay: eGFP mRNA transfection, THP-1 cells (96-well); details: ratio 1/2, 150 ng eGFP mRNA, 24 h
Procedure: THP-1 (ATCC® TIB-202™) human peripheral blood monocyte cells were grown in RPMI-1640 with 10% FBS and supplemented with 10 mM HEPES buffer, 1 mM sodium pyruvate, 0.05 mM 2-mercaptoethanol, 2 mM glutamine, 100 U/mL of penicillin and 100 μg/mL of streptomycin at 37° C. in a 5% CO2 in air atmosphere.
(§1) mRNA eGFP (996 nt, reference L-6101) from TriLink Technologies was used for the in vitro transfection experiments and expressed enhanced green fluorescent protein which is a common reporter gene (eGFP). This mRNA was capped with a Cap 0, polyadenylated and modified with 5-methylcytidine and pseudo-uridine.
(§2) One day before transfection, Caco-2, THP-1 or BJ Cells were seeded at 10 000, 25 000, or 5 000 cells per well (96-well plate format), respectively, in 125 μL of their respective complete medium and incubated at 37° C. in a 5% CO2 in air atmosphere. For Jurkat cells, 25 000 cells were seeded per well prior transfection. On the day of transfection 150 ng of mRNA was added in 11.5 μL of 5% glucose solution, mixed with a vortex and incubated for 5 minutes at rt. Then, 1 μL of 1 mM cationic liposomal formulation was added onto the diluted mRNA, mixed with a vortex and incubated for 15 minutes at rt. The formulated mRNA solution (12.5 μL) was added into the well and the plate was incubated for 24 hours at 37° C. in a 5% CO2 in air atmosphere.
(§3) For the GFP expression analysis, the cell culture medium was removed for the adherent cells and 50 μL of trypsin-EDTA (1×, Lonza) was added and the plate was incubated for 5 minutes at 37° C. 150 μL of complete medium were added to neutralize the trypsin, and the GFP expression was analysed (2000 events) by flow cytometry (Exc 488 nm, Em 520 nm) using a Guava easyCyte 6HT cytometer (Millipore).
(§4) All these new liposomal formulations (Table 1) were assessed to deliver mRNA expressing an enhanced green fluorescent protein (eGFP) as reporter gene in order to determine the gene expression and the transfection efficiency (Table 2). mRNA eGFP capped with a Cap 0 in 5′-end, polyadenylated in 3′-end and modified with 5-methylcytidine and pseudo-uridine was used in the transfection assay. The transfection assay was performed as described in the Experimental section where 150 ng of mRNA eGFP was complexed with 1 μL of 1 mM cationic liposomal formulations in a 5% glucose solution before the addition on the cells. One day post-transfection, the eGFP expression was analyzed by flow cytometry to determine the percentage of transfection. Four different cell lines were used in this assay from easy to transfect cells to hard to transfect cells with plasmid DNA, including human BJ skin fibroblast cells, THP-1 human peripheral blood monocytes, Caco-2 human colon epithelial cells and Jurkat Clone E6-1 human T lymphoblast cells, respectively.

[2] = tested on: Jurkat Clone E6-1 human T lymphoblast cells; assay: eGFP mRNA transfection, Jurkat cells (96-well); details: 150 ng eGFP mRNA, 24 h
Procedure: Jurkat Clone E6-1 (ATCC® TIB-152™) human T lymphoblast cells were grown in RPMI-1640 (LONZA) with 10% of FBS (EUROBIO) and supplemented with 2 mM Glutamine (LONZA), 100 U/mL of penicillin and 100 μg/mL of streptomycin (LONZA) at 37° C. in a 5% CO2 in air atmosphere.
as §1, §2, §3, §4

[3] = tested on: Caco-2 human colon epithelial cells; assay: eGFP mRNA transfection, Caco-2 cells (96-well); details: for Transfection efficiency (eGFP %) CaCO2: ratio 1/2, 150 ng eGFP mRNA, 24 h
Procedure: Caco-2 (ATCC® HTB-37™) human colon epithelial cells were grown in DMEM 4.5 g/L glucose with 20% FBS supplemented with 1% non-essential amino acids, 1 mM sodium pyruvate, 2 mM glutamine and 100 U/mL of penicillin and 100 μg/mL of streptomycin at 37° C. in a 5% CO2 in air atmosphere.
as §1, §2, §3, §4

[4] = tested on: BJ human skin fibroblast cells; assay: eGFP mRNA transfection, BJ cells (96-well); details: co-lipid DOPE, ratio 1/2; 150 ng eGFP mRNA; 24 h
Procedure: BJ (ATCC® CRL-2522™) human skin fibroblast cells were grown in Eagle's Minimum Essential Medium with 10% FBS and supplemented with 1% non-essential amino acids, 1 mM sodium pyruvate, 2 mM glutamine and 100 U/mL of penicillin and 100 μg/mL of streptomycin at 37° C. in a 5% CO2 in air atmosphere.
as §1, §2, §3, §4

[5] = co-lipid DOPE, ratio compound/co-lipid 1/2, 1 μL of 1 mM formulation, flow cytometry

Row | Transfection efficiency (eGFP %) CaCO2 ([3]; co-lipid DOPE) | Transfection efficiency (eGFP %) CaCO2 ([3]; co-lipid DPyPE) | SMILES | Transfection efficiency (eGFP %) THP-1 ([1]; co-lipid DOPE) | Transfection efficiency (eGFP %) THP-1 ([1]; co-lipid DPyPE) | Transfection efficiency (eGFP %) Jurkat [2, 5] | Transfection efficiency (eGFP %) Jurkat ([2]; co-lipid DPyPE, ratio 1/2) | Transfection efficiency (eGFP %) BJ [4] | GFP expression one day post-transfection, comparison of co-lipids ([3]; CaCo2 cells, co-lipid DPyPE versus DOPE, PaLiPE, DiLiPE, molar ratio 1:2 (FIG. 3)) | Transfection efficiency (eGFP %) Jurkat ([2]; co-lipid DPyPE, ratio 1/1.5)
1 | – | – | CCCCCCCCCCCCCCC(CCCCCCCCCCCCCC)CCCCC(CCC(C)CCCC(C)C)[n+]1ccn(CCCC)c1.[Cl-] (stereo not shown) [Compound W22.7, 1-butyl-3-(2,6-dimethyl-14-tetradecyloctacosan-9-yl)-1H-imidazol-3-ium chloride] | 70-80% | 80-85% | 50-60% | 40-55% | – | – | –
2 | 75-80% | – | CCCCCCCCCCCCCCCCCCC(CCCCCCCCCCCCCCCCCC)CCCCC(CCCCCCCCCCCCCCCCCC)[n+]1ccn(C)c1.[Cl-] (stereo not shown) [Compound W13.7, 1-methyl-3-(24-octadecyldotetracontan-19-yl)-1H-imidazol-3-ium chloride] | 80-85% | – | 10-20% | – | 65-75% | – | –
3 | 5-15% | – | CCCCCCCCCCCCCCCCCCC(CCCCCCCCCCCCCCCCC)C[n+]1ccn(C)c1.[Cl-] (stereo not shown) [Compound W7.4, 1-methyl-3-(2-heptadecylicosyl)-1H-imidazol-3-ium chloride] | 40-50% | – | 5-15% | – | 65-75% | – | –
4 | 50-60% | 60-70% | CCCCCCCCCCCCCCCCCCC(CCCCCCCCCCCCCCCCCC)CCCCC(CCC(C)CCCC(C)C)[n+]1ccn(CCCC)c1.[Cl-] (stereo not shown) [Compound W21.7, 1-butyl-3-(2,6-dimethyl-14-octadecyldotriacontan-9-yl)-1H-imidazol-3-ium chloride] | 70-80% | 70-80% | 40-50% | 55-65% | – | – | –
5 | 40-50% | – | CCCCCCCCCCCCCCC(CCCCCCCCCCCCCC)CCCCC(CCCCCCCCCCCCCC)[n+]1ccn(C)c1.[Cl-] (stereo not shown) [Compound W9.7, 1-methyl-3-(20-tetradecyltetratriacontan-15-yl)-1H-imidazol-3-ium chloride] | 70-80% | – | 10-15% | – | 90-95% | optimal | –
6 | 5-10% | – | CCCCCCCCCCCCCCCCCCC(CCCCCCCCCCCCCCCCCC)n1cc[n+](C)c1.[Cl-] [MONI, 1-Methyl-3-(1-Octadecyl-Nonadecyl)-3H-Imidazol-1-ium chloride, reference compound] | 30-40% | – | 5-10% | – | 50-60% | – | –
7 | 65-75% | – | CCCCCCCC/C=C\CCCCCCCCC(CCCCC(CCCCCCCCCCCCCC)CCCCCCCCCCCCCC)[n+]1ccn(C)c1.[Cl-] (stereo not shown) [Compound W10.7, 1-methyl-3-(24-tetradecyloctatriacont-9-en-19-yl)-1H-imidazol-3-ium chloride] | 70-80% | – | 25-30% | – | 90-95% | – | –
8 | – | – | CCCCCCCCCCCCCCCCCCC(CCCCCCCCCCCCCCCCCC)CCCCC(CC1CCCCC1)[n+]1ccn(C)c1.[Cl-] (stereo not shown) [Compound W14.7, 1-methyl-3-(1-cyclohexyl-7-octadecylpentacosan-2-yl)-1H-imidazol-3-ium chloride] | 55-65% | – | 25-35% | – | – | – | –
9 | – | – | CCCCCCCCCCCCCCCCCCC(CCCCCCCCCCCCCCCCCC)CCCCC(Cc1ccccc1)[n+]1ccn(C)c1.[Cl-] (stereo not shown) [Compound W15.7, 1-methyl-3-(7-octadecyl-1-phenylpentacosan-2-yl)-1H-imidazol-3-ium chloride] | 55-70% | – | 25-30% | – | – | – | –
10 | – | – | CCCCCCCCCCCCCCC(CCCCCCCCCCCCCC)CCCCC(CCCCC(CCCCCCCCCCCCCC)CCCCCCCCCCCCCC)[n+]1ccn(C)c1.[Cl-] [Compound W18.9, 1-methyl-3-(15,25-ditetradecylnonatriacontan-20-yl)-1H-imidazol-3-ium chloride] | 80-85% | – | 25-30% | – | – | – | –
11 | 15-20% | – | CCCCCCCCCCCCCCCCCCC(CCCCCCCCCCCCCCCCCC)CCCCC(CCC(C)CCCC(C)C)[n+]1ccn(C)c1.[Cl-] (stereo not shown) [Compound W16.7, 1-methyl-3-(2,6-dimethyl-14-octadecyldotriacontan-9-yl)-1H-imidazole-3-ium chloride] | 75-80% | – | 35-40% | – | – | – | –
12 | – | – | CCCCn1cc[n+](C(CCCCC(CCC(C)CCCC(C)C)CCC(C)CCCC(C)C)CCC(C)CCCC(C)C)c1.[Cl-] (stereo not shown) [Compound W23.7, 1-butyl-3-(14-(3,7-dimethyloctyl)-2,6,17,21-tetramethyldocosan-9-yl)-1H-imidazol-3-ium chloride] | – | – | – | – | – | – | 25-30%
13 | 80-85% | – | CCCCCCCC/C=C\CCCCCCCCC(CCCCC(CCCCCCCCCCCCCC)CCCCCCCCCCCCCC)[n+]1ccn(CCCC)c1.[Cl-] (stereo not shown) [Compound W20.7, 1-butyl-3-(24-tetradecyloctatriacont-9-en-19-yl)-1H-imidazol-3-ium chloride] | 80-90% | 65-80% | 60-70% | 50-60% | 90-95% | – | –
14 | 15-25% | – | CCCCCCCC/C=C\CCCCCCCCC(CCCCCCCC/C=C\CCCCCCCC)[n+]1ccn(C)c1.[Cl-] [Compound W1.4, 1-methyl-3-(heptatriaconta-9,28-dien-19-yl)-1-methyl-1H-imidazol-3-ium chloride] | 80-85% | – | 10-15% | – | 80-95% | – | –
15 | – | – | CCCCCCCCCCCCCCCCCCC(CCCCCCCCCCCCCCCCCC)CCCCC(CCCCCC)[n+]1ccn(C)c1.[Cl-] (stereo not shown) [Compound W17.7, 1-methyl-3-(12-octadecyltriacontan-7-yl)-1H-imidazol-3-ium chloride] | 70-75% | – | 30-35% | – | – | – | –
16 | – | – | CCCCCCC/C=C\CCCCCCCCC(CCCCCCCC/C=C\CCCCCCCC)[n+]1ccn(C)c1.[Cl-] (stereo not shown) [Compound W8.7, 1-methyl-3-(hexatriaconta-8,27-dien-18-yl)-1H-imidazol-3-ium] | 70-80% | – | 10-15% | – | 80-85% | – | –
17 | – | – | CCCCCCCCCCCCCCCCCCNC(CCCCCCCCCC)CCCC(CCCCCCCCCC)n1cc[n+](C)c1.Cl.[Cl-] (stereo not shown) [Compound W19.7, 1-methyl-3-(15-(octadecylammonio)pentacosan-11-yl)-1H-imidazol-3-ium chloride] | 40-50% | – | 40-50% | – | – | – | –
